Reference: patent US20120022054A1, “NOVEL SUBSTITUTED ARYL DERIVATIVES, THEIR PROCESS OF PREPARATION AND THEIR THERAPEUTICAL USES AS ANTI-HIV AGENTS” (priority 2008, published 2012)
Like-named read-outs stand apart in the source and are kept apart here.

Tested on: NL4-3 strain of HIV-1
Experiment: Multiple cycle infection assay of CAp24 antigen production
Assay type: cell-based
Settings: Human immunodeficiency virus 1, NL43, SUP-T1, 96 h, multiple cycle infection with NL4-3 virus, SupT1, MT4 or PBMC, MOI 0.01, day 4 and day −6 post-infection, read-out: EC50 for antiviral activity (50% inhibition of CA p24 production)

Structure (SMILES) | EC50 (threshold below 500 nM) [µM] | EC50 (threshold below 5 μM) [µM]
COc1ccc(F)cc1CN(C)C(=O)CCCn1ccc2cc(F)ccc21 [Example 106, 4-(5-fluoro-1H-indol-1-yl)-N-(5-fluoro-2-methoxybenzyl)-N-methylbutanamide] | < 0.5 | < 5
CN(C(=O)CCCSc1ccc(F)cc1)c1cccc2ccccc12 [Example 169, 4-[(4-Fluorophenyl)thio]-N-methyl-N-1-naphthylbutanamide] | < 0.5 | < 5
COc1ccc(F)cc1CN(C)C(=O)CCCn1cc(-c2ccc(O)cc2)cn1 [Example 176, N-(5-Fluoro-2-methoxybenzyl)-4-[4-(4-hydroxyphenyl)pyrazol-1-yl]-N-methylbutanamide] | < 0.5 | < 5
COc1ccc(F)cc1CN(C)C(=O)CCCn1cc(-c2ccncc2)cn1 [Example 178, N-(5-Fluoro-2-methoxybenzyl)-4-(4-pyridin-4-yl-pyrazol-1-yl)-N-methylbutanamide] | < 0.5 | < 5
CCOC(=O)c1cc(F)ccc1[S+]([O-])CCCC(=O)N1CCc2ccc(OC)cc21 (stereo not drawn) [Example 191, Ethyl 5-fluoro-2-((4-(6-methoxy-2,3-dihydro-1H-indol-1-yl)-4-oxobutyl)sulfinyl)benzoate] | – | < 5
COc1ccc(F)cc1CN(C)C(=O)CCC[S+]([O-])c1ccc(O)cc1 (stereo not drawn) [Example 103, N-(5-fluoro-2-methoxybenzyl)-4-[(4-hydroxyphenyl)sulfinyl]-N-methylbutanamide] | < 0.5 | < 5
COc1ccc(F)cc1CN(C)C(=O)CCCn1cc(-c2ccc(F)cc2C)cn1 [Example 175, N-(5-Fluoro-2-methoxybenzyl)-4-[4-(4-fluoro-2-methylphenyl)pyrazol-1-yl]-N-methylbutanamide] | < 0.5 | < 5
COc1ccc([S+]([O-])CCCC(=O)N(C)Cc2cc(F)ccc2OC)cc1 (stereo not drawn) [Example 104, N-(5-fluoro-2-methoxybenzyl)-4-[(4-methoxyphenyl)sulfinyl]-N-methylbutanamide] | < 0.5 | < 5
COc1ccc(F)cc1CN(C)C(=O)CCCSc1ccc(O)cc1 [Example 71, N-(5-Fluoro-2-methoxybenzyl)-4-[(4-hydroxyphenyl)thio]-N-methylbutanamide] | < 0.5 | < 5
COc1ccc(C(=O)CCCC(=O)N(C)Cc2cc(Cl)ccc2OC)cc1 [Example 125, N-(5-chloro-2-methoxybenzyl)-5-(4-methoxyphenyl)-N-methyl-5-oxopentanamide] | < 0.5 | < 5
COc1ccc(F)cc1CN(C)C(=O)CCCn1ccc2cc(Cl)ccc21 [Example 107, 4-(5-chloro-1H-indol-1-yl)-N-(5-fluoro-2-methoxybenzyl)-N-methylbutanamide] | < 0.5 | < 5
COc1ccc(F)cc1CN(C)C(=O)CCCn1cc(-c2ccc(C#N)cc2)cn1 [Example 177, N-(5-Fluoro-2-methoxybenzyl)-4-[4-(4-cyanophenyl)pyrazol-1-yl]-N-methylbutanamide] | < 0.5 | < 5
COc1ccc([S+]([O-])CCCC(=O)N(C)Cc2cc(Cl)ccc2OC)cc1 (stereo not drawn) [Example 116, N-(5-chloro-2-methoxybenzyl)-4-[(4-methoxyphenyl)sulfinyl]-N-methylbutanamide] | < 0.5 | < 5
COc1ccc(Cl)cc1CN(C)C(=O)CCCSc1ccc(O)cc1 [Example 70, N-(5-Chloro-2-methoxybenzyl)-4-[(4-hydroxyphenyl)thio]-N-methylbutanamide] | < 0.5 | < 5
COc1ccc(F)cc1CN(C)C(=O)CCCSc1ccc(F)cc1 [Example 84, N-(5-Fluoro-2-methoxybenzyl)-4-[(4-fluorophenyl)thio]-N-methylbutanamide] | < 0.5 | < 5
COc1ccc(F)cc1CN(C)C(=O)CCCn1cc(-c2ccc(F)cc2)cn1 [Example 170, N-(5-Fluoro-2-methoxybenzyl)-4-[4-(4-fluorophenyl)pyrazol-1-yl]-N-methylbutanamide] | < 0.5 | < 5
COc1ccc([S+]([O-])CCCC(=O)N(C)Cc2cc(F)ccc2OC(C)C)cc1 (stereo not drawn) [Example 118, N-(5-fluoro-2-isopropoxybenzyl)-4-[(4-methoxyphenyl)sulfinyl]-N-methylbutanamide] | < 0.5 | < 5
CC(C)Oc1ccc(F)cc1CN(C)C(=O)CCCSc1ccc(F)cc1 [Example 85, N-(5-Fluoro-2-isopropoxybenzyl)-4-[(4-fluorophenyl)thio]-N-methylbutanamide] | < 0.5 | < 5
CN(Cc1ccccc1N1CCNCC1)C(=O)CCCSc1ccc(O)cc1 [Example 162, 4-[(4-Hydroxyphenyl)thio]-N-methyl-N-(2-piperazin-1-ylbenzyl)butanamide] | < 0.5 | < 5
COc1ccc(C)cc1CN(C)C(=O)CCCn1ccc2cc(F)ccc21 [Example 120, 4-(5-fluoro-1H-indol-1-yl)-N-(2-methoxy-5-methylbenzyl)-N-methylbutanamide] | < 0.5 | < 5
CN(C(=O)CCC[S+]([O-])c1ccc(F)cc1)c1nccc2ccccc12 (stereo not drawn) [Example 129, 4-[(4-fluorophenyl)sulfinyl]-N-isoquinolin-1-yl-N-methylbutanamide] | < 0.5 | < 5
CN(C(=O)CCCSc1ccc(F)cc1)c1nccc2ccccc12 [Example 128, 4-[(4-fluorophenyl)thio]-N-isoquinolin-1-yl-N-methylbutanamide] | < 0.5 | < 5
CN(C(=O)CCCSc1ccc(F)cc1)c1cccc2cccnc12 [Example 130, 4-[(4-fluorophenyl)thio]-N-methyl-N-quinolin-8-ylbutanamide] | < 0.5 | < 5
COc1ccc(-c2cnn(CCCC(=O)N(C)Cc3cc(F)ccc3OC)c2)cc1 [Example 174, N-(5-Fluoro-2-methoxybenzyl)-4-[4-(4-methoxyphenyl)pyrazol-1-yl]-N-methylbutanamide] | < 0.5 | < 5
COc1ccc(Cl)cc1CN(C)C(=O)CCCn1cc(-c2ccc(F)cc2)cn1 [Example 173, N-(5-Chloro-2-methoxybenzyl)-4-[4-(4-fluorophenyl)pyrazol-1-yl]-N-methylbutanamide] | < 0.5 | < 5
COc1ccc(F)cc1CN(C)C(=O)CCCn1ccc2cc(Br)ccc21 [Example 108, 4-(5-bromo-1H-indol-1-yl)-N-(5-fluoro-2-methoxybenzyl)-N-methylbutanamide] | < 0.5 | < 5
COc1ccc(F)cc1CN(C)C(=O)CCCn1cc(-c2ccc(F)cc2)c(C)n1 [Example 171, N-(5-Fluoro-2-methoxybenzyl)-4-[4-(4-fluorophenyl)-3-methylpyrazol-1-yl]-N-methylbutanamide] | < 0.5 | < 5
COc1ccc(Cl)cc1CN(C)C(=O)CCCSc1ccc(OC(C)C)cc1 [Example 113, N-(5-chloro-2-methoxybenzyl)-4-[(4-isopropoxyphenyl)thio]-N-methylbutanamide] | < 0.5 | < 5
COc1ccc(F)cc1CN(C)C(=O)CCCSc1ccc(Br)cc1 [Example 145, 4-[(4-Bromophenyl)thio]-N-(5-fluoro-2-methoxybenzyl)-N-methylbutanamide] | < 0.5 | < 5
